Where two headings read alike, the source gives them in different places.
Columns and labels:
Assay type in all cases: cell-based
[1] = system: coxsackievirus B3 strain Nancy; assay: Viral yield reduction assay against CVB3 in Vero cells; settings: for IC50: Vero cells, viral yield reduction, MOI 0.01, 24 h, read-out: IC50 towards CVB3
[2] = in vitro; settings: for CC50 at 24 h: African green monkey; for CC50 at 72 h: dog
Protocol: The microtetrazolium test (MTT) was used to study the cytotoxicity of the compounds [24]. The experiment was repeated three times. Vero cells were seeded in 96-well plates in Eagles minimal essential medium (MEM) supplemented with 10% FBS. After 24 h, the media was removed, and the wells were washed with saline. Compounds were dissolved in DMSO, and a series of three-fold dilutions of each compound and pleconaril (1000-4 µg/mL) in MEM without FBS were prepared and added to the cells in quadriplicates (200 µL per well). The maximal concentration of DMSO was 0.5% MEM with 0.5% DMSO and was added to cell control wells. Cells were incubated for 24 h at 37 °C in 5% CO2 in the presence of the dissolved compounds. The cells were then washed with saline, and a solution of 3-(4,5-dimethylthiazolyl-2) 2,5-diphenyltetrazolium bromide (ICN Biochemicals Inc., Aurora, OH, USA) (0.5 µg/mL) in MEM was added to the wells (100 µL per well). After 2 h of incubation at 37 °C in 5% CO2, the supernatant from wells was discarded, and the formazan residue was dissolved in DMSO (100 µL per well). The optical density of cells was then measured on a Victor 21,440 multifunctional reader (Perkin Elmer, Turku, Finland) at a wavelength of 535 nm and plotted against the concentration of the compounds to generate the dose–response curve. The 50% cytotoxic dose (CC50) of each compound (i.e., the compound concentration that causes the death of 50% of cells in a culture, or decreases the optical density twice as compared to the control wells) was calculated using four-parameter logistic nonlinear regression model. For some compounds (35a and 35b) cytotoxicity towards MDCK cell line was determined using the procedure above, but the cells were exposed to compounds for 72 h.

[3] = system: influenza virus A/Puerto Rico/8/34 (H1N1); assay: Antiviral activity against IAV, hemagglutination test in MDCK cells; settings: for IC50: MDCK cells, hemagglutination test, 72 h, read-out: IC50 Towards IAV

| Molecule | IC50 ([1]; Enterovirus B) | CC50 at 24 h [2] | also measured |
| --- | --- | --- | --- |
| Methyl 5-(4-(2-methyl-4-(5-(trifluoromethyl)-1,2,4-oxadiazol-3-yl)phenyl)piperazin-1-yl)-isoxazole--3-carboxylate [Compound 28d] |  |  | IC50 [1]: 3.9 ± 0.3 µM |
| CCOC(=O)c1cc(CCC(=O)Oc2ccc(-c3noc(C(F)(F)F)n3)cc2C)on1 [Compound 12a, Ethyl 5-(3-(2-methyl-4-(5-(trifluoromethyl)-1,2,4-oxadiazol-3-yl)phenoxy)-3-oxopropyl)-isoxazole-3-carboxylate] | 9.1 ± 0.8 µM | 683 ± 30.4 µM |  |
| Cc1cc(-c2noc(C(F)(F)F)n2)ccc1N1CCN(C(=O)c2c(-c3ccccc3)noc2C)CC1 [Compound 35b, (5-Methyl-3-phenylisoxazol-4-yl)(4-(2-methyl-4-(5-(trifluoromethyl)-1,2,4-oxadiazol-3-yl)phenyl)pi-perazin-1-yl)methanone] | 16.1 ± 1.1 µM | 2010 ± 121 µM | activity against the influenza virus A (in words) [3]: inactive; IC50 [3]: > 604 µM; CC50 at 72 h [2]: > 604 µM |
| CCOC(=O)c1cc(N2CCN(c3ccc(-c4noc(C(F)(F)F)n4)cc3C)CC2)on1 [Compound 28c, Ethyl 5-(4-(2-methyl-4-(5-(trifluoromethyl)-1,2,4-oxadiazol-3-yl)phenyl)piperazin-1-yl)isoxazole-3-carboxylate] | 48.7 ± 4.4 µM | ~53.2 µM |  |
| Cc1cc(CCCSc2ccc(-c3noc(C(F)(F)F)n3)cc2C)on1 [Compound 6b, 3-(3-Methyl-4-((3-(3-methylisoxazol-5-yl)propyl)thio)phenyl)-5-(trifluoromethyl)-1,2,4-oxadiazole] | 15.6 ± 1.4 µM | > 2610 µM |  |
| CCOC(=O)c1cc(CCCSc2ccc(-c3noc(C(F)(F)F)n3)cc2C)on1 [Compound 6a, 3-(3-Methyl-4-((3-(3-carbethoxy-isoxazol-5-yl)propyl)thio)phenyl)-5-(trifluoromethyl)-1,2,4-oxadia-zole] | 21 ± 1.5 µM | 485 ± 20.1 µM |  |
| Cc1cc(-c2noc(C(F)(F)F)n2)ccc1N1CCN(C(=O)c2cc(-c3ccccc3)no2)CC1 [Compound 35a, (4-(2-Methyl-4-(5-(trifluoromethyl)-1,2,4-oxadiazol-3-yl)phenyl)piperazin-1-yl)(3-phenylisoxazol--5-yl)methanone] | > 620 µM | 1520 ± 70.3 µM | activity against the influenza virus A (in words) [3]: inactive; IC50 [3]: > 493 µM; activity towards CVB3 (in words) [1]: inactive; CC50 at 72 h [2]: 1450 ± 102 µM |
| Cc1cc(-c2noc(C(F)(F)F)n2)ccc1N1CCN(c2cc(C(=O)N(C)C)no2)CC1 [Compound 28a, N,N-Dimethyl-5-(4-(2-methyl-4-(5-(trifluoromethyl)-1,2,4-oxadiazol-3-yl)phenyl)piperazin-1-yl)iso-xazole-3-carboxamide] | 9.1 ± 0.7 µM | 1870 ± 90.4 µM |  |
| Cc1cc(-c2noc(C(F)(F)F)n2)ccc1SCCCc1cc(C(=O)N(C)C)no1 [Compound 7, N,N-dimethyl-5-(3-((2-methyl-4-(5-(trifluoromethyl)-1,2,4-oxadiazol-3-yl)phenyl)thio)propyl)isoxa-zole-3-carboxamide] | 18.6 ± 1.3 µM | > 2270 µM |  |
| Cc1cc(CCC(=O)Oc2ccc(-c3noc(C(F)(F)F)n3)cc2C)on1 [Compound 12b, 2-Methyl-4-(5-(trifluoromethyl)-1,2,4-oxadiazol-3-yl)phenyl 3-(3-methylisoxazol-5-yl)propanoate] | 13.1 ± 0.9 µM | 464 ± 30.3 µM |  |
| Cc1cc(CCC(=O)Nc2ccc(-c3noc(C(F)(F)F)n3)cc2C)on1 [Compound 20b, N-(2-Methyl-4-(5-(trifluoromethyl)-1,2,4-oxadiazol-3-yl)phenyl)-3-(3-methylisoxazol-5-yl)propan-amide] | 76.2 ± 5.3 µM | 1740 ± 120 µM |  |
| Cc1cc(-c2noc(C(F)(F)F)n2)ccc1NC(=O)CCc1cc(C(=O)N(C)C)no1 [Compound 21, N,N-dimethyl-5-(3-((2-methyl-4-(5-(trifluoromethyl)-1,2,4-oxadiazol-3-yl)phenyl)amino)-3-oxopro-pyl)isoxazole-3-carboxamide] | 6.8 µM | 1690 ± 70.7 µM |  |
| CCOC(=O)c1cc(CCC(=O)Nc2ccc(-c3noc(C(F)(F)F)n3)cc2C)on1 [Compound 20a, Ethyl 5-(3-((2-methyl-4-(5-(trifluoromethyl)-1,2,4-oxadiazol-3-yl)phenyl)amino)-3-oxopropyl)isoxa-zole-3-carboxylate] | 18.2 ± 1.6 µM | 1720 ± 70.5 µM |  |
| Cc1cc(CCCOc2c(C)cc(-c3noc(C(F)(F)F)n3)cc2C)on1 [Pleconaril] | 18.4 ± 1.5 µM | 2400 ± 160 µM |  |
| Cc1cc(CN2CCN(c3ccc(-c4noc(C(F)(F)F)n4)cc3C)CC2)on1 [Compound 28b, 3-(3-Methyl-4-(4-((3-methylisoxazol-5-yl)methyl)piperazin-1-yl)phenyl)-5-(trifluoromethyl)-1,2,4-oxadiazole] | 41.7 ± 2.1 µM | 2460 ± 171 µM |  |
